From US11129825B2, “Polysubunit opioid prodrugs resistant to overdose and abuse” (Elysium Therapeutics, Inc., priority 2015, dated 2021)

What was measured:
[1] = test system: trypsin; assay: Inhibition of trypsin-catalyzed hydrolysis of Nα-Benzoyl-L-arginine 4-nitroanilide hydrochloride in vitro; format: biochemical; conditions: pH 7.4, 37° C.; for Percent Nα-Benzoyl-L-arginine 4-nitroanilide hydrochloride remaining: trypsin 2,000 BAEE
Procedure: This example describes in vitro experiments with a compound of the disclosure to provide a mechanism of overdose protection.
The effect of increasing concentrations of compounds 2 and 3 on the rate and extent of the trypsin-catalyzed hydrolysis of a commercially available trypsin substrate Nα-Benzoyl-L-arginine 4-nitroanilide hydrochloride was evaluated in the presence of trypsin (2,000 BAEE activity) in a pH 7.4 phosphate buffer at 37° C. in vitro. Both buffer alone (i.e. no trypsin) and trypsin (i.e. no compound 2 or 3) controls were run contemporaneously.

[2] = Pharmacokinetics of delivered hydrocodone after increasing oral doses in dogs; format: in vivo
Procedure: The effect of increasing oral doses of compounds 2 and 3 on the pharmacokinetics of delivered hydrocodone (i.e. measured plasma hydrocodone concentrations vs. time) was evaluated in dogs. Specific pharmacokinetics parameters of the delivered opioid were calculated (e.g. Cmax, Tmax, AUC) and are presented below in the Table below.

[3] = test system: opioid receptors; conditions: after oral doses; cited from earlier work
[4] = hydrochloride salt; cited from earlier work
[5] = oral administration; cited from earlier work

With COc1ccc2c3c1O[C@H]1C(OC(=O)N4CCC(C(=O)NCCCC[C@H](NC(=O)OCc5ccccc5)C(=O)NCCOc5ccc(C(=O)Oc6ccc7cc(C(=N)N)ccc7c6)cc5)CC4CNC(=O)[C@@H](CCCNC(=N)N)NC(=O)CNC(C)=O)=CC[C@H]4[C@@H](C2)N(C)CC[C@]314 (stereo partly shown) [Compound 2] the “Trypsin inhibition with increasing compound concentration” value ([1]; 1 uM to 1 mM, result in words) was “progressively inhibit trypsin in a concentration dependent manner”, the “Percent Nα-Benzoyl-L-arginine 4-nitroanilide hydrochloride remaining” value ([1]; compound 1 uM, 2 min) was 100% and the “Percent Nα-Benzoyl-L-arginine 4-nitroanilide hydrochloride remaining” value ([1]; compound 1 uM, 13 min) was 39%. The “Percent Nα-Benzoyl-L-arginine 4-nitroanilide hydrochloride remaining” value ([1]; compound 1 uM, 24 min) was 0%, the “Percent Nα-Benzoyl-L-arginine 4-nitroanilide hydrochloride remaining” value ([1]; compound 1 uM, 80 min) was 0% and the “Percent Nα-Benzoyl-L-arginine 4-nitroanilide hydrochloride remaining” value ([1]; compound 1 uM, 102 min) was 0%. For the same compound, the “Percent Nα-Benzoyl-L-arginine 4-nitroanilide hydrochloride remaining” value ([1]; compound 1 uM, 119 min) was 0%, the “Percent Nα-Benzoyl-L-arginine 4-nitroanilide hydrochloride remaining” value ([1]; compound 1 uM, 234 min) was 0% and the “Percent Nα-Benzoyl-L-arginine 4-nitroanilide hydrochloride remaining” value ([1]; compound 10 uM, 2 min) was 100%. The “Percent Nα-Benzoyl-L-arginine 4-nitroanilide hydrochloride remaining” value ([1]; compound 10 uM, 13 min) was 98%, the “Percent Nα-Benzoyl-L-arginine 4-nitroanilide hydrochloride remaining” value ([1]; compound 10 uM, 24 min) was 96% and the “Percent Nα-Benzoyl-L-arginine 4-nitroanilide hydrochloride remaining” value ([1]; compound 10 uM, 80 min) was 94%. For the same compound, the “Percent Nα-Benzoyl-L-arginine 4-nitroanilide hydrochloride remaining” value ([1]; compound 10 uM, 102 min) was 93%, the “Percent Nα-Benzoyl-L-arginine 4-nitroanilide hydrochloride remaining” value ([1]; compound 10 uM, 119 min) was 94% and the “Percent Nα-Benzoyl-L-arginine 4-nitroanilide hydrochloride remaining” value ([1]; compound 10 uM, 234 min) was 87%. The “Percent Nα-Benzoyl-L-arginine 4-nitroanilide hydrochloride remaining” value ([1]; compound 100 uM, 2 min) was 100%, the “Percent Nα-Benzoyl-L-arginine 4-nitroanilide hydrochloride remaining” value ([1]; compound 100 uM, 13 min) was 98% and the “Percent Nα-Benzoyl-L-arginine 4-nitroanilide hydrochloride remaining” value ([1]; compound 100 uM, 24 min) was 100%. For the same compound, the “Percent Nα-Benzoyl-L-arginine 4-nitroanilide hydrochloride remaining” value ([1]; compound 100 uM, 80 min) was 99%, the “Percent Nα-Benzoyl-L-arginine 4-nitroanilide hydrochloride remaining” value ([1]; compound 100 uM, 102 min) was 99% and the “Percent Nα-Benzoyl-L-arginine 4-nitroanilide hydrochloride remaining” value ([1]; compound 100 uM, 119 min) was 99%. The “Percent Nα-Benzoyl-L-arginine 4-nitroanilide hydrochloride remaining” value ([1]; compound 100 uM, 234 min) was 99%, the “Percent Nα-Benzoyl-L-arginine 4-nitroanilide hydrochloride remaining” value ([1]; compound 1 mM, 2 min) was 100% and the “Percent Nα-Benzoyl-L-arginine 4-nitroanilide hydrochloride remaining” value ([1]; compound 1 mM, 13 min) was 100%. For the same compound, the “Percent Nα-Benzoyl-L-arginine 4-nitroanilide hydrochloride remaining” value ([1]; compound 1 mM, 24 min) was 99%, the “Percent Nα-Benzoyl-L-arginine 4-nitroanilide hydrochloride remaining” value ([1]; compound 1 mM, 80 min) was 100% and the “Percent Nα-Benzoyl-L-arginine 4-nitroanilide hydrochloride remaining” value ([1]; compound 1 mM, 102 min) was 100%. The “Percent Nα-Benzoyl-L-arginine 4-nitroanilide hydrochloride remaining” value ([1]; compound 1 mM, 119 min) was 100%, the “Percent Nα-Benzoyl-L-arginine 4-nitroanilide hydrochloride remaining” value ([1]; compound 1 mM, 234 min) was 100% and the “Release of hydrocodone in vivo with increasing oral doses” value ([2]; increasing oral doses, dogs, result in words) was “progressively attenuate the release of hydrocodone in vivo”. The “AUC0-8 h of hydrocodone in dog plasma” value ([2]; oral dose 1.66 umol/kg) was 7.79 ng·h/mL, the “Maximum concentration (Cmax) of hydrocodone in dog plasma” value (from here on “Maximum concentration (Cmax)”) ([2]; oral dose 1.66 umol/kg) was 2.87 ng/mL HC and the “Time of maximum concentration (Tmax) of hydrocodone in dog plasma” value (“Time of maximum concentration” for short) ([2]; oral dose 1.66 umol/kg) was 0.96 h. The “AUC0-8 h of hydrocodone in dog plasma” value ([2]; oral dose 5 umol/kg) was 27 ng·h/mL, the “Maximum concentration (Cmax)” value ([2]; oral dose 5 umol/kg) was 6.49 ng/mL HC and the “Time of maximum concentration” value ([2]; oral dose 5 umol/kg) was 1.38 h. The “AUC0-8 h of hydrocodone in dog plasma” value ([2]; oral dose 10 umol/kg) was 37.68 ng·h/mL, the “Maximum concentration (Cmax)” value ([2]; oral dose 10 umol/kg) was 8.37 ng/mL HC and the “Time of maximum concentration” value ([2]; oral dose 10 umol/kg) was 2.08 h. For the same compound, the “AUC0-8 h of hydrocodone in dog plasma” value ([2]; oral dose 35 umol/kg) was 64.38 ng·h/mL, the “Maximum concentration (Cmax)” value ([2]; oral dose 35 umol/kg) was 11.87 ng/mL HC and the “Time of maximum concentration” value ([2]; oral dose 35 umol/kg) was 2.13 h.
In the case of C[C@H]1[C@H]2Cc3ccc(O)cc3[C@]1(C)CCN2CC1CC1 [cyclazocine], the Duration of action [3] is given as roughly 24 h.
In the case of O=C1CC[C@@]2(O)[C@H]3Cc4ccc(O)c5c4[C@@]2(CCN3CC2CC2)[C@H]1O5 [naltrexone], the Duration of action [3] is given as roughly 24 h, the Solubility in water [4] is given as “about 100 mg/mL” and the Oral bioavailability [5] is given as 5-40%.
